Reference: US9139615B2, “High-affinity, dimeric inhibitors of PSD-95 as efficient neuroprotectants against ischemic brain damage and for treatment of pain” (University of Copenhagen, priority 2011, dated 2015)
Several values for one entry are separate records, joined by “and”; a condition that tells them apart may be missing. Equal entries are not always repeated. Entries after “also recorded” stand apart in the source; their conditions may differ. One block for each compound: values may come before it. Where a SMILES comes first, the peptide text is derived from it. The star is where a group is joined. 5FAM = O=C1OC2(c3ccc(O)cc3Oc3cc(O)ccc32)c2ccc(C(=O)*)cc21

Key:
[1] = Spinal cord detection of fluorescent PSD-95 inhibitors; format: in vivo, mice; details: 30 mg/kg i.p., 30 min after injection
Method: To investigate if AB143 and AB145 are able to enter spinal cord tissue, they were administered to the mice by intraperitoneal injection (30 mg/kg). The drug-treated mice were decapitated 30 min after injection, and the spinal cord was carefully dissected out, to which 5% trichloroacetic acid (TCA) (300 μL per 0.1 g tissue) was added and the tissue homogenized with an ultrasonic homogenizer (on ice). The homogenated tissue was vortexed and centrifuged for 10 min (20000 g at 4° C.). The supernatant was transferred to a test tube and evaporated, and the residue was reconstituted in water and its fluoresence intensity was determined by using a fluorescence plate reader (excitation/emission:470/525 nm). For quantification of the compounds, a standard curve was prepared by spiking a known amount of AB143 and AB145 into spinal cord tissue from control mice prior to homogenization, followed by work-up and analysis similar to the drug-treated mice.

[2] = Blood-brain barrier permeability of fluorescent analogues; format: in vivo, mice; details: 5-FAM-labeled, 3 nmol/g i.v., 2 hours after injection, unmanipulated mice
Method: VI.ii. Blood-brain Barrier Permeability. […] After injection of the compounds, the mice are perfused with paraformaldehyde and the brains are carefully removed, post-fixed in paraformaldehyde, processed into coronal sections, and quantified for fluorescence (Example 8).
The fluorescent ligands were injected intravenously (3 nmol/g) and the location of the ligands was detected by fluorescence microscopy of coronal brain slices (n=8) mice, was evaluated 2 hours after injection. Two sections of the brain, prior to and two after the anterior commissure (n=5), were selected for BBB permeability analysis. The anterior commissure (Bregma: −0.3) was used as a fix point in the brain in order to analyse anatomically identical brain sections. The intensity of the 5-FAM fluorophore was measured semi-quantitatively using a fluorescence microscopy system (Olympus System Microscope model BX-51, Denmark) with a 10× objective (Olympus 10×/0.15 UPlanApo) connected to a high-resolution microscope digital camera (Olympus model DP70), which transferred images to an image-capturing software (Image Pro Plus software). All images were taken using the same microscope settings and with constant camera exposure time. Intensities were quantified using the ImageJ software.
5-FAM-labeled derivative of Tat-NR2B9c is designated MS23. After injection of the compounds, the mice are perfused with paraformaldehyde and the brains are carefully removed, post-fixed in paraformaldehyde, processed into coronal sections, and quantified for fluorescence.
C57BL/6 mice with 6 hour post-surgical survival time were euthanized by cervical dislocation. C57BL/6 mice with 48 hour post-surgical survival were anesthetized with an overdosed of pentobarbital (the pharmacy of the Faculty of Life Sciences, University of Copenhagen, Denmark) in order to collect blood and tissue samples. All brains were carefully removed, frozen in gaseous CO2 and cut into 6 series of 30 μm coronal cryostat sections and stored at −80° C. until further use. C57BL/6J mice used to investigate the blood-brain barrier (BBB) permeability of AB143, AB145, AB148, and MS23 were deeply anesthetized and perfused through the left ventricle, using 10 ml chilled Soerensens phosphate buffer (SB) ([…], 125 mM Na2HPO4, pH 7.4) followed by 20 mL SB containing 4% paraformaldehyde (PFA). The brains were carefully removed and post-fixed in 4% PFA for 1 hour followed by immersion in SB containing 20% sucrose over night. The brains were frozen on gaseous CO2 and processed into 16 μm coronal cryostat sections.

[3] = tested on: pMCAO model of ischemic stroke; test: Rotarod performance test after pMCAO; format: in vivo, mice; details: 48 hours after pMCAO
Method: The rotarod (LE 8200, Panlab) is well suited to evaluate motor activity in rodents, experimental compound effects on central nervous system damage, or disease effects on motor coordination, assessed by the time during which the animal remains walking in a rotating drum. The rotation of the rotarod is motor drived and accelerates from 0 to 40 rounds per min (rpm) over a time period of 5 min, at which time all mice have fallen off the rod. All mice were tested in 4 repeating trials with a 20 min interval (resting time). Prior to surgery mice were pre-trained to stay on the rod for 30 seconds, at 4 rpm.

[4] = Physiological status of pMCAO mice (blood values, body weight, temperature, survival); format: in vivo; details: mouse, in vivo
Method: The physiological status of the mice was carefully monitored prior to and during pMCAO surgery in order to exclude the observed effects of treatment with dimeric PSD-95 inhibitors being due to secondary conditions (e.g. disease-related) resulting from the experimental procedure.
9.10 Body weight monitoring: The body weight of each mouse was registered during pre-training, before surgery, and at 24 and 48 hours after surgery and no differences were seen between the treatment groups (FIG. 13).
9.11 Temperature monitoring: The rectal temperature of the mouse was continuously measured using a thermocoupled probe connected to a Model Bat 12 unit (Physitemp). The temperature was measured prior to and 30 min after pMCAO in addition to 30 min and 2.5 hours after i.v. injection, i.e. 1 and 3 hours after pMCAO.
9.12 Blood gas analysis: One samples of venous blood was taken for blood gas analysis of PO2/PCO2 electrolytes, glucose, lactate, and hematocrit, 30 min after compound administration (1 hour after pMCAO). A capillary heparin coated tube was inserted along the inner corner of eye and turned until it penetrated the conjunctiva. A sample of blood (150 μl) was collected and stored on ice until gas analysis using the GEM Premier 300 blood gas instrument (Instrumentation Laboratory) Quality controls (QC ContrlIL9) were purchased from IL Sensor Systems. Also, no differences were detected in blood gas parameters (PO2/PCO2, pH, electrolytes, glu/lac), which were similar between the groups and within normal range, when compared to unmanipulated control mice (Table 4).

[5] = tested on: pMCAO model of ischemic stroke; test: Grip strength after pMCAO; format: in vivo, mice; details: 48 hours after pMCAO, 3 nmol/g i.v.
Method: The grip strength meter (BIO-GT-3, BIOSEB) allows the study of neuromuscular functions in mice by determining the maximum force that is required to make the mouse release its grip. The grip strength in individual paws was used to measure the severity of the pMCAO-induced asymmetry. The mouse is allowed to grasp a metal grid and then pulled backwards in the horizontal plane. The force applied to the grid is recorded as the peak tension. The strength of individual front paws and the total grip strength (both paws simultaneously) were measured before (baseline) and after pMCAO. Each mouse is tested in 5 sequential trials and the highest grip strength is recorded as the best score.

[6] = Human blood plasma stability assay; format: in vitro ADME
Method: Ligands (dimeric PSD-95 inhibitors) for the PDZ domain of PSD-95 were dissolved in human blood plasma (270 μL; 3H Biomedical, Sweden, cat no 1300-1-P50) to a concentration of 0.25 mM (30 μL, of 2.5 mM) and incubated at 37° C. Aliquots (30 μL) were removed at various time intervals (e.g. 0, 5, 10, 20, 40, 80, 160, 320, 960, 1280, 2550, 4560 and 7240 min) and quenched with 60 μL, trichloroacetic acid (aq., 5%). The aliquots were vortexed, and incubated 15 min, at 4° C. prior to centrifugation at 18,000 g for 2 min. The supernatants were analyzed by analytical RP-HPLC (UV218) to quantify compound relative to time zero, and also evaluated qualitatively by ESI-LC/MS in order to identify the compound (m/z) in the sample. Procaine (positive control) and procainamide (negative control) were investigated at 50 μM to validate the procedure. Ligand recoveries following the precipitation procedure were between 85-95%.

SMILES: CC[C@H](C)[C@H](NC(=O)CCOCCOCCN(CCOCCOCCC(=O)N[C@H](C(=O)N[C@@H](CCC(=O)O)C(=O)N[C@H](C(=O)N[C@@H](CC(=O)O)C(=O)N[C@H](C(=O)O)C(C)C)[C@@H](C)O)[C@@H](C)CC)C(=O)[C@H](CCCNC(=N)N)NC(=O)[C@H](CCCNC(=N)N)NC(=O)[C@H](CCCNC(=N)N)NC(=O)[C@H](CCC(N)=O)NC(=O)[C@H](CCCNC(=N)N)NC(=O)[C@H](CCCNC(=N)N)NC(=O)[C@H](CCCCN)NC(=O)[C@H](CCCCN)NC(=O)[C@H](CCCNC(=N)N)NC(=O)CNC(=O)[C@H](Cc1ccc(O)cc1)NC(=O)c1ccc2c(c1)C(=O)OC21c2ccc(O)cc2Oc2cc(O)ccc21)C(=O)N[C@@H](CCC(=O)O)C(=O)N[C@H](C(=O)N[C@@H](CC(=O)O)C(=O)N[C@H](C(=O)O)C(C)C)[C@@H](C)O [AB145, F-Tat-NPEG4(IETDV)2]
fluorescence in spinal cord tissue compared to saline-treated mice [1]: clear and distinct fluorescence increase
concentration in spinal cord, Average ± SEM ([1]; mice): 0.074 nmol/g and 0.074 ± 0.022 nmol/g
concentration in spinal cord, individual samples ([1]; mice): 0.035 nmol/g and 0.132 nmol/g and 0.108 nmol/g and 0.084 nmol/g and 0.012 nmol/g
entry into brain, fluorescence microscopy of coronal brain slices [2]: enter the brain; also recorded: Detection

degradation in human blood plasma [6]: No detectable degradation
SMILES: CC[C@H](C)[C@H](NC(=O)CCOCCOCCN(CCOCCOCCC(=O)N[C@H](C(=O)N[C@@H](CCC(=O)O)C(=O)N[C@H](C(=O)N[C@@H](CC(=O)O)C(=O)N[C@H](C(=O)O)C(C)C)[C@@H](C)O)[C@@H](C)CC)C(=O)[C@@H](CCCNC(=N)N)NC(=O)[C@@H](CCCCN)NC(=O)[C@@H](CCCCN)NC(=O)[C@@H](CCCNC(=N)N)NC(=O)[C@@H](CCCNC(=N)N)NC(=O)[C@@H](CCC(N)=O)NC(=O)[C@@H](CCCNC(=N)N)NC(=O)[C@@H](CCCNC(=N)N)NC(=O)[C@H](N)CCCNC(=N)N)C(=O)N[C@@H](CCC(=O)O)C(=O)N[C@H](C(=O)N[C@@H](CC(=O)O)C(=O)N[C@H](C(=O)O)C(C)C)[C@@H](C)O [AB147, Retroinverso-D-Tat-NPEG4(IETDV)2]
total time spent on the rod ([3]; 3 nmol/g i.v., four trials): 92.6 ± 4.5 s
short term learning skill improvement on rotarod compared to saline ([3]; trials T1-T4): more pronounced short term learning skill improvement
Hct [4]: 41.3 ± 0.6%
[Ca2+] [4]: 1.31 ± 0.01 mmol/L
[K+] [4]: 5.1 ± 0.18 mmol/L
[Lactate] [4]: 0.90 ± 0.05 mmol/L
[Na+] [4]: 147 ± 0.5 mmol/L
pCO2 [4]: 104 ± 2.5 mmHg
pO2 [4]: 56.4 ± 2.9 mmHg
grip strength asymmetry between right and left front paw [5]: no asymmetry and not
total grip strength (both paws) compared to baseline [5]: no significant change in total grip strength; also recorded: No difference compared to baseline

half-life at 0.25 mM ([6]; human, human blood plasma, 0.25 mM, 37° C., in vitro, read-out: half-life (T1/2) in human blood plasma): 37 ± 6 min
SMILES: CC[C@H](C)[C@H](N)C(=O)N[C@@H](CCC(=O)O)C(=O)N[C@H](C(=O)N[C@@H](CC(=O)O)C(=O)N[C@H](C(=O)O)C(C)C)[C@@H](C)O [IETDV, reference compound]

SMILES: CC[C@H](C)[C@H](NC(=O)[C@H](CO)NC(=O)[C@H](CO)NC(=O)[C@H](CC(C)C)NC(=O)[C@H](CCCCN)NC(=O)[C@H](CCCNC(=N)N)NC(=O)[C@H](CCCNC(=N)N)NC(=O)[C@H](CCCNC(=N)N)NC(=O)[C@H](CCC(N)=O)NC(=O)[C@H](CCCNC(=N)N)NC(=O)[C@H](CCCNC(=N)N)NC(=O)[C@H](CCCCN)NC(=O)[C@H](CCCCN)NC(=O)[C@H](CCCNC(=N)N)NC(=O)CNC(=O)[C@H](Cc1ccc(O)cc1)NC(=O)c1ccc2c(c1)C(=O)OC21c2ccc(O)cc2Oc2cc(O)ccc21)C(=O)N[C@@H](CCC(=O)O)C(=O)N[C@@H](CO)C(=O)N[C@@H](CC(=O)O)C(=O)N[C@H](C(=O)O)C(C)C [MS23, F-Tat-NR2B9c, reference compound] (5FAM-YGRKKRRQRRRKLSSIESDV-OH)
entry into brain, fluorescence microscopy of coronal brain slices [2]: Detection
